Reference: US20080026049A1, “LIPOSOMAL COMPOSITIONS FOR PARENTERAL DELIVERY OF AGENTS” (priority 2005, published 2008)

Test: physchem
Details: HBS, aqueous buffer

- solubility: < 100 µg/mL
Structure (SMILES): Clc1ccc(COC(Cn2ccnc2)c2ccc(Cl)cc2Cl)cc1 (stereo not shown) [econazole, [(dichloro-2,4 phenyl)-2(chloro-4 benzoyloxy)-2 ethyl]-1 imidazole nitrate]
